Source: patent US10144706B2 (BRISTOL-MYERS SQUIBB COMPANY, priority 2016, dated 2018)
pIC50: −log10 of the molar value. Where two headings read alike, the source gives them in different places.

Molecular target: T1, PD-1/PD-L1 interaction (PD-1-Ig / PD-L1-His) (Homo sapiens, UniProt Q9NZQ7)
T1 construct: hPDL1(18-239)-TVMV-His; TVMV protease site linker (C); made in house; host or cells: HEK293T
Assay: PD-1/PD-L1 Homogenous Time-Resolved Fluorescence (HTRF) binding assay
Settings: PD-L1-His 10 nM, PD-1-Ig 20 nM, read-out: Range or IC50
Method in brief: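 HTRF detection used 1 nM europium-cryptate anti-Ig and 20 nM APC anti-His. Compounds first saw 10 nM PD-L1-His for 15 min, and 20 nM PD-1-Ig was then added for another 15 min. Buffer was dPBS plus 0.1% BSA and 0.05% Tween-20. All concentrations are final.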

T1 sequence (Q9NZQ7 with tags, fused parts or gaps): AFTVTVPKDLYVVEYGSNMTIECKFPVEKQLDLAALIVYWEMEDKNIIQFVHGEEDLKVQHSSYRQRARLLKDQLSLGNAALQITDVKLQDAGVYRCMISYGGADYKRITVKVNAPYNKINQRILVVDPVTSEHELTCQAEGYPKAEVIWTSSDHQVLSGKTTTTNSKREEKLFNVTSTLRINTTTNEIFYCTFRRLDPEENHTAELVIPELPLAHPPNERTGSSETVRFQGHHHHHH

| Structure (SMILES) | pIC50 (IC50 range class) | pIC50 (numeric IC50) |
| --- | --- | --- |
| Cc1c(OCCCNCC(O)C(=O)O)cccc1-c1cccc(OCCCN2CC[C@@H](O)C2)c1C (stereo partly drawn) [Example 2016, 2-hydroxy-3-((3-((3′-(3-((R)-3-hydroxypyrrolidin-1-yl)propoxy)-2,2′-dimethyl-[1,1′-biphenyl]-3-yl)oxy)propyl)amino)propanoic acid] | 7.05 to 7.70 | – |
| O=C(O)C[C@@H](O)C(=O)NCCCOc1cccc(-c2cccc(OCCCNC(=O)[C@H](O)CC(=O)O)c2Cl)c1Cl [Example 2136, (3R,3′R)-4,4′-((((2,2′-dichloro-[1,1′-biphenyl]-3,3′-diyl)bis(oxy))bis(propane-3,1-diyl))bis(azanediyl))bis(3-hydroxy-4-oxobutanoic acid)] | – | 5.46 |
| Cc1c(OCCCNCCc2cccnc2)cccc1-c1cccc(OCCCNCCc2cccnc2)c1C [Example 2086, 3,3′-((2,2′-dimethyl-[1,1′-biphenyl]-3,3′-diyl)bis(oxy))bis(N-(2-(pyridin-3-yl)ethyl)propan-1-amine)] | 7.70 to 10.40 | – |
| Cc1c(COc2cc(OCc3cncc(C#N)c3)c(CNC(CO)CO)cc2Cl)cccc1-c1cccc(COc2cc(OCc3cncc(C#N)c3)c(CNC(CO)CO)cc2Cl)c1C [Example 2128, 5,5′-((((((2,2′-dimethyl-[1,1′-biphenyl]-3,3′-diyl)bis(methylene))bis(oxy))bis(4-chloro-6-(((1,3-dihydroxypropan-2-yl)amino)methyl)-3,1-phenylene))bis(oxy))bis(methylene))dinicotinonitrile] | 7.70 to 10.40 | – |
| Cc1c(OCCCN(CCO)CCO)cccc1-c1cccc(OCCCN2CC[C@@H](O)C2)c1C [Example 2068, (R)-2,2′-((3-((3′-(3-(3-hydroxypyrrolidin-1-yl)propoxy)-2,2′-dimethyl-[1,1′-biphenyl]-3-yl)oxy)propyl)azanediyl)bis(ethan-1-ol)] | 6.00 to 7.05 | – |
| Cc1c(COc2cc(OCc3cncc(C#N)c3)c(CO)cc2Cl)cccc1-c1cccc(COc2cc(OCc3cncc(C#N)c3)c(CN3CC[C@@H](O)C3)cc2Cl)c1C [Example 2126, (R)-5-((4-chloro-5-((3′-((2-chloro-5-((5-cyanopyridin-3-yl)methoxy)-4-((3-hydroxypyrrolidin-1-yl)methyl)phenoxy)methyl)-2,2′-dimethyl-[1,1′-biphenyl]-3-yl)methoxy)-2-(hydroxymethyl)phenoxy)methyl)nicotinonitrile] | 7.05 to 7.70 | – |
| Cc1c(OCCCNCCO)cccc1-c1cccc(OCCCNCCO)c1C [Example 2027, 2,2′-((((2,2′-dimethyl-[1,1′-biphenyl]-3,3′-diyl)bis(oxy))bis(propane-3,1-diyl))bis(azanediyl))bis(ethan-1-ol)] | 7.05 to 7.70 | – |
| Cc1c(OCCCNCCc2cccnc2)cccc1-c1cccc(OCCCN2CC[C@@H](O)C2)c1C [Example 2022, (R)-1-(3-((2,2′-dimethyl-3′-(3-((2-(pyridin-3-yl)ethyl)amino)propoxy)-[1,1′-biphenyl]-3-yl)oxy)propyl)pyrrolidin-3-ol] | 7.70 to 10.40 | – |
| Cc1c(OCCCN(C)Cc2ccccn2)cccc1-c1cccc(OCCCN2CC[C@@H](O)C2)c1C [Example 2062, (R)-1-(3-((2,2′-dimethyl-3′-(3-(methyl(pyridin-2-ylmethyl)amino)propoxy)-[1,1′-biphenyl]-3-yl)oxy)propyl)pyrrolidin-3-ol] | 7.05 to 7.70 | – |
| Cc1c(OCCCN(CCO)CCC(C)C)cccc1-c1cccc(OCCCN2CC[C@@H](O)C2)c1C [Example 2073, (R)-1-(3-((3′-(3-((2-hydroxyethyl)(isopentyl)amino)propoxy)-2,2′-dimethyl-[1,1′-biphenyl]-3-yl)oxy)propyl)pyrrolidin-3-ol] | 7.05 to 7.70 | – |
| Cc1c(OCCCNCCn2cc(Cl)cn2)cccc1-c1cccc(OCCCN2CC[C@@H](O)C2)c1C [Example 2060, (R)-1-(3-((3′-(3-((2-(4-chloro-1H-pyrazol-1-yl)ethyl)amino)propoxy)-2,2′-dimethyl-[1,1′-biphenyl]-3-yl)oxy)propyl)pyrrolidin-3-ol] | 7.05 to 7.70 | – |
| CCN(CC)C(=O)C1CCCN(CCCOc2cccc(-c3cccc(OCCCN4CC[C@@H](O)C4)c3C)c2C)C1 (mixture of isomers) [Example 2023, N,N-diethyl-1-(3-((3′-(3-((R)-3-hydroxypyrrolidin-1-yl)propoxy)-2,2′-dimethyl-[1,1′-biphenyl]-3-yl)oxy)propyl)piperidine-3-carboxamide] | 7.05 to 7.70 | – |
| Cc1c(OCCCNCC(O)C(C)(C)O)cccc1-c1cccc(OCCCNCC(O)C(C)(C)O)c1C (mixture of isomers) [Example 2029, 4,4′-((((2,2′-dimethyl-[1,1′-biphenyl]-3,3′-diyl)bis(oxy))bis(propane-3,1-diyl))bis(azanediyl))bis(2-methylbutane-2,3-diol)] | 7.70 to 10.40 | – |

More lines, now with the values ahead:

| pIC50 (IC50 range class) | pIC50 (numeric IC50) | Structure (SMILES) |
| --- | --- | --- |
| 7.70 to 10.40 | – | Cc1c(COc2cc(OCc3cncc(C#N)c3)c(CNC(C(=O)O)C(C)O)cc2Cl)cccc1-c1cccc(COc2cc(OCc3cncc(C#N)c3)c(CNC(C(=O)O)C(C)O)cc2Cl)c1C (stereo not shown) [Example 40100] |
| 7.70 to 10.40 | – | Cc1c(COc2cc(OCc3ccc(-n4cccn4)nc3)c(CN[C@H](C(=O)O)[C@@H](C)O)cc2Cl)cccc1-c1cccc(COc2cc(OCc3ccc(-n4cccn4)nc3)c(CN[C@H](C(=O)O)[C@@H](C)O)cc2Cl)c1C [Example 5018, (2S,2′S,3R,3′R)-2,2′-((((((2,2′-dimethyl-[1,1′-biphenyl]-3,3′-diyl)bis(methylene))bis(oxy))bis(2-((6-(1H-pyrazol-1-yl)pyridin-3-yl)methoxy)-5-chloro-4,1-phenylene))bis(methylene))bis(azanediyl))bis(3-hydroxybutanoic acid)] |
| 7.70 to 10.40 | – | Cc1c(COc2cc(OCC3CC3)c(CNC(CCO)C(=O)O)cc2Cl)cccc1-c1cccc(COc2cc(OCC3CC3)c(CNC(CCO)C(=O)O)cc2Cl)c1C (stereo not shown) [Example 40180] |
| 7.70 to 10.40 | – | Cc1c(OCCCN2CC[C@@H](O)C2)cccc1-c1ccc2c(c1)OC(CCN1CC[C@@H](O)C1)CO2 (single isomer, unassigned) [Example 3030] |
| 7.05 to 7.70 | – | Cc1c(COc2cc(OCc3ccc(-n4cccn4)nc3)c(CN(C)[C@H](C(=O)O)[C@@H](C)O)cc2Cl)cccc1-c1cccc(COc2cc(OCc3ccc(-n4cccn4)nc3)c(CN(C)[C@H](C(=O)O)[C@@H](C)O)cc2Cl)c1C [Example 5029, (2S,2′S,3R,3′R)-2,2′-((((((2,2′-dimethyl-[1,1′-biphenyl]-3,3′-diyl)bis(methylene))bis(oxy))bis(2-((6-(1H-pyrazol-1-yl)pyridin-3-yl)methoxy)-5-chloro-4,1-phenylene))bis(methylene))bis(methylazanediyl))bis(3-hydroxybutanoic acid)] |
| 7.70 to 10.40 | – | Cc1c(COc2cc(OCc3cncc(C#N)c3)c(CN[C@H](C(=O)O)[C@@H](C)O)cc2Cl)cccc1-c1cccc(COc2cc(OCc3cncc(C#N)c3)c(CN[C@H](C(=O)O)[C@@H](C)O)cc2Cl)c1C [Example 41100] |
| 7.70 to 10.40 | – | Cc1c(COc2cc(OCc3cncc(C#N)c3)c(CO)cc2Cl)cccc1-c1cccc(COc2cc(OCc3cncc(C#N)c3)c(CNC(C(=O)O)C(C)O)cc2Cl)c1C (stereo not shown) [Example 50200] |
| 7.70 to 10.40 | – | Cc1c(COc2cc(OCc3cncc(C#N)c3)c(CN(CC3CCCO3)C(CCO)C(=O)O)cc2Cl)cccc1-c1cccc(COc2cc(OCc3cncc(C#N)c3)c(CN(CC3CCCO3)C(CCO)C(=O)O)cc2Cl)c1C (stereo not shown) [Example 41020] |
| 7.70 to 10.40 | – | CCCN(Cc1cc(Cl)c(OCc2cccc(-c3cccc(COc4cc(OCc5cncc(C#N)c5)c(CN(CCC)[C@@H](CCO)C(=O)O)cc4Cl)c3C)c2C)cc1OCc1cncc(C#N)c1)[C@@H](CCO)C(=O)O [Example 40750] |
| 7.70 to 10.40 | – | Cc1c(COc2cc(OCc3cncc(C#N)c3)c(CNC(Cc3c[nH]c4ccccc34)C(=O)O)cc2Cl)cccc1-c1cccc(COc2cc(OCc3cncc(C#N)c3)c(CNC(Cc3c[nH]c4ccccc34)C(=O)O)cc2Cl)c1C (stereo not shown) [Example 40460] |
| 7.70 to 10.40 | – | Cc1c(COc2cc(OCc3cncc(C#N)c3)c(CNC[C@H](C)C(=O)O)cc2Cl)cccc1-c1cccc(COc2cc(OCc3cncc(C#N)c3)c(CNC[C@H](C)C(=O)O)cc2Cl)c1C [Example 40500] |
| 7.70 to 10.40 | – | Cc1c(COc2cc(OCc3cncc(C#N)c3)c(CNCC(O)CC(=O)O)cc2Cl)cccc1-c1cccc(COc2cc(OCc3cncc(C#N)c3)c(CNCC(O)CC(=O)O)cc2Cl)c1C (stereo not shown) [Example 40230] |
| 6.00 to 7.05 | – | Cc1c(OCCCN2CC[C@@H](O)C2)cccc1-c1cccc(OCCCN2CC[C@@H](O)C2)c1C#N [Example 3025, 3,3′-bis(3-((R)-3-hydroxypyrrolidin-1-yl)propoxy)-2′-methyl-[1,1′-biphenyl]-2-carbonitrile] |
| 7.05 to 7.70 | – | Cc1c(COc2cc(OCc3cc(F)cc(F)c3)c(CN(C)C(C)(CO)CO)cc2Cl)cccc1-c1cccc(COc2cc(OCc3cc(F)cc(F)c3)c(CN(C)C(C)(CO)CO)cc2Cl)c1C [Example 5012, 2,2′-((((((2,2′-dimethyl-[1,1′-biphenyl]-3,3′-diyl)bis(methylene))bis(oxy))bis(5-chloro-2-((3,5-difluorobenzyl)oxy)-4,1-phenylene))bis(methylene))bis(methylazanediyl))bis(2-methylpropane-1,3-diol)] |
| 7.70 to 10.40 | – | N#Cc1cncc(COc2cc(OCc3cccc(-c4cccc(COc5cc(OCc6cncc(C#N)c6)c(C(=O)NCCO)cc5Cl)c4Cl)c3Cl)c(Cl)cc2C(=O)O)c1 [Example 90010] |
| 6.00 to 7.05 | – | COC(=O)[C@@H]1CCCCN1Cc1cc(Cl)c(OCc2cccc(-c3cccc(COc4cc(OCc5cncc(C#N)c5)c(CN5CCCC[C@H]5C(=O)OC)cc4Cl)c3C)c2C)cc1OCc1cncc(C#N)c1 [Example 40300] |
| 7.70 to 10.40 | – | Cc1c(COc2cc(OCc3cncc(C#N)c3)c(CNC(CCO)C(=O)O)cc2Cl)cccc1-c1cccc(COc2cc(OCc3cncc(C#N)c3)c(CN(CC3CC3)C(CCO)C(=O)O)cc2Cl)c1C (stereo not shown) [Example 40840] |
| 7.70 to 10.40 | – | Cc1c(COc2cc(OCc3cncc(C#N)c3)c(CO)cc2Cl)cccc1-c1cccc(COc2cc(OCc3cncc(C#N)c3)c(CN[C@H](CO)C(=O)O)cc2Cl)c1C [Example 50240] |
